We go through 18 compounds from patent publication US8211854B2, “Methods for inhibiting protein kinases” (Schering Corporation, priority 2005, dated 2012).

The structures appear in SMILES notation.

The first experiment concerns the target T1, His-CHK1 (Homo sapiens, UniProt O14757).
T1 construct: fused on or other part: His tag
T1 sequence (O14757 1-265 limits assumed): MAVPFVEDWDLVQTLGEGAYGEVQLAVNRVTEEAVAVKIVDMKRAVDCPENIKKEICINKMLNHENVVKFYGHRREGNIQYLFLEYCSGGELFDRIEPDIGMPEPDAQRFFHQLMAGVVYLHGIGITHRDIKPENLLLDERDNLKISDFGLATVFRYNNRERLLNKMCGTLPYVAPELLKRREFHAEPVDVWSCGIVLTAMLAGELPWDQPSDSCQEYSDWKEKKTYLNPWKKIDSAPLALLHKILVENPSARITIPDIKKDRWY
Kind of experiment: CHK1 SPA Assay. The class given is biochemical.
Conditions: not given
`Cn1cc(-c2cnn3c(N)c(Br)c(CC4CCCNC4)nc23)cn1` (stereo not drawn): the IC50 is 9 nM.
The same measure, in the same setting: the figure for `Cc1cc(Nc2cc(C3CCCNC3)nc3c(-c4cnn(C)c4)cnn23)sn1` (stereo not drawn) is 7 nM.

Still in this experiment, the particulars now being: read-out: CHK1 inhibitory activity (IC50).
As for `CC#Cc1c(C2CCCNC2)nc2c(-c3cnn(C)c3)cnn2c1N` (stereo not drawn), the IC50 was 45 nM.
On the same count and under the same terms, with `Cn1cc(-c2cnn3c(N)c(I)c(C4CCCNC4)nc23)cn1` (stereo not drawn) the figure was 3 nM.

Staying with this experiment, now noted: recombinant His-CHK1, biotinylated CDC25C peptide substrate, 1 μM ATP, 2 hours at room temperature; read-out: CHK1 inhibitory activity (IC50).
Regarding `Cc1cc(Nc2cc(N3CC[C@@H](N)C3)nc3c(-c4cnn(C)c4)cnn23)sn1`, the IC50 was 50 nM.
The same measure, in the same setting: the figure for `Cn1cc(-c2cnn3c(N)c(Br)c(C4CNCCS4)nc23)cn1` (stereo not drawn) is 6 nM; for `N#Cc1cc(-c2cnn3c(N)c(Br)c(C4CCCNC4)nc23)co1` (stereo not drawn) it is 4 nM.
Regarding `Cn1cc(-c2cnn3c(Nc4ccc(-n5ccnc5)cc4)cc(C4CCCNC4)nc23)cn1` (stereo not drawn), the IC50 stood at 60 nM.
For the compound `Cc1cc(Nc2cc(C3CCCNC3)nc3c(-c4coc(C#N)c4)cnn23)sn1` (stereo not drawn), the IC50 worked out at 7 nM.
With `Cn1cc(-c2cnn3c(N)cc(CC4CCNCC4)nc23)cn1`, the IC50 worked out at 400 nM.
The same measure, in the same setting: the figure for `CN(C)c1cccc(Nc2cc(C3CCCNC3)nc3c(-c4cnn(C)c4)cnn23)c1` (stereo not drawn) is 250 nM; for `Cn1cc(-c2cnn3c(Nc4ccncc4)cc(C4CCCNC4)nc23)cn1` (stereo not drawn) it is 100 nM.
Same read-out and setting: with `Cn1cc(-c2cnn3c(Nc4cccc(S(N)(=O)=O)c4)cc(C4CCCNC4)nc23)cn1` (stereo not drawn) the figure was 390 nM; with `Cn1cc(-c2cnn3c(N)c(-c4cccs4)c(C4CCCNC4)nc23)cn1` (stereo not drawn), 90 nM.
The same measure, in the same setting: with `Cn1cc(-c2cnn3c(N)c(Br)c(CCCN)nc23)cn1` the figure was 11 nM; with `Nc1c(Br)c(N2CC[C@H](N)C2)nc2c(-c3ccsc3)cnn12`, 430 nM.
Consider `N#Cc1ccc(-c2cnn3c(N)cc(C4CCCNC4)nc23)cc1` (stereo not drawn), for which the IC50 is 120 nM.
As to `Nc1c(Br)c(C2CCCNC2)nc2c(-c3ccoc3)cnn12` (stereo not drawn), the IC50 worked out at 25 nM.
